According to patent US20220323427A1, “SOMATOSTATIN RECEPTOR TYPE 5 AGONIST FOR THE TREATMENT OF HYPERINSULINISM” (Crinetics Pharmaceuticals, Inc., priority 2021, published 2022):

Columns and labels:
[1] = molecular target: T1, human somatostatin receptor subtype 2 (Homo sapiens, UniProt P30874); assay: cAMP assay for SST2R; format: cell-based; settings: inhibition of cAMP, CHO-K1 cells expressing human SST2; read-out: SST2 potency (EC50; nM)
T1 construct: expressed in transfected cells
Source text: General overview: All five SSTR subtypes are Gi coupled G-protein coupled receptors (GPCRs) that lead to decreases in intracellular cyclic AMP (cAMP) when activated by an agonist. Therefore, measurement of intracellular cAMP levels can be used to assess whether compounds of the invention are agonists of SSTR subtypes (John Kelly, Troy Stevens, W. Joseph Thompson, and Roland Seifert, Current Protocols in Pharmacology, 2005, 2.2.1-2.2). One example of an intracellular cAMP assay is described below.
Four days prior to the assay, 5,000 Chinese hamster ovary cells (CHO-K1, ATCC #CCL-61) stably expressing the human somatostatin receptor subtype 2 are plated in each well of a 96-well tissue culture-treated plate in Ham's F12 growth media (ThermoFisher #10-080-CM) supplemented with 10% donor bovine serum (Gemini Bio-Products #100-506), 100 U/mL penicillin; 100 ug/mL streptomycin; 2 mM L-glutamine (Gemini Bio-Products #400-110) and 0.2 mg/mL hygromycin B (GoldBio #31282-04-9). The cells are cultured at 37° C., 5% CO2 and 95% humidity. […] The time-resolved fluorescent signal is read with a Tecan M1000Pro multiplate reader. The intracellular cAMP concentrations are calculated by regression to a standard curve and are plotted vs. the concentration of the compounds of the invention and the EC50 of the compounds are calculated using standard methods. […]

human pancreatic islets = assay: Glucagon secretion in perifused human islets; format: cell-based; settings: islets from a healthy donor; G3+Arg
Protocol: For glucagon secretion, glucose (Boston BioProducts #BM-675) solutions, G3, G16.7 and G3 plus 20 mM arginine (Sigma #A8094; G3+Arg) were prepared in PB [24 mM NaHCO3 (Fisher Scientific #S233-500), 120 mM NaCl (Spectrum Chemical #S0155), 4.8 mM KCl (Fisher Scientific #P217-500), 2.5 mM CaCl2 (Fisher Scientific #C614-500), 1.2 mM MgCl2 (Sigma #M8266), 10 mM HEPES (Gibco #15630-080) and 0.1% BSA (EMD Millipore #12-675-100GM)]. Various concentrations of Compound 1 and diazoxide (Sigma #D9035) were prepared in G16.7 or in G3+Arg. On the day of the assay, ten perifusion chambers (Biorep #Peri-chamber) were loaded with a bead suspension (Biorep #Peri-beads-20) followed by 300 IEQ and another layer of bead suspension. Chambers were filled with PB, placed in the perifusion equipment and equilibrated with G3 for 74 min (flow rate=230 μL/min) followed by the perifusion steps for glucagon secretion shown in Table 3. […] Glucagon concentration was quantified using the commercially-available Mercodia Glucagon ELISA (Mercodia #10-1271-01) kit. undiluted perfusate samples were added to the supplied pre-coated assay plates. […] The optical density of each well was determined at 450 nm in a Tecan M1000Pro (Tecan, Switzerland) multiplate reader. Glucagon concentrations were calculated by regression to the standard curve using GraphPad Prism (GraphPad, San Diego, Calif.).

[2] = Exposure in non-fasted male rats; settings: Sprague Dawley, rat, in vivo, oral, 10 mg/kg
[3] = SAD study pharmacokinetics; format: in vivo, human
Source text: This Phase 1, first-in-human, double-blind, randomized, placebo-controlled study will evaluate the safety of Compound 1 in healthy volunteers as well as the relationship between exposure and key pharmacodynamic (PD) parameters. The study will initiate with a single ascending dose (SAD) phase followed by a multiple ascending dose (MAD) phase. Food effect will also be evaluated in subset of subjects in the SAD phase. Results will be used to inform endpoints and other parameters in later studies in patients with congenital HI.
SAD 1a/Part 1a: ascending single dose, randomized, placebo-controlled, double-blind; up to 10 cohorts, n=8/cohort; subjects in SAD 1a will undergo an IVGTT. Doses will escalate from 0.5 mg to 120 mg.
SAD 1c/Part 1c: single dose, 1-arm crossover food effect investigation; 1 cohort, n=6; SAD 1c will not be placebo-controlled or blinded. The dose is 120 mg.
In SAD 1c, subjects will participate in a 1-arm crossover investigation to evaluate the effect of a high-fat meal on Compound 1 absorption.

[4] = MAD study safety and tolerability; format: in vivo, human; settings: QD 30, 60 and 120 mg/day for 10 days
Protocol: MAD/Part 2: multiple ascending dose, randomized, placebo-controlled, double-blind; up to 5 cohorts, n=9/cohort; subjects in MAD will receive Compound 1 or the placebo. Subjects will undergo a mixed meal tolerance test (MMTT) and an SU challenge and euglycemic clamp procedure. The doses will not exceed the doses in the SAD. Doses will escalate from 30 mg to 120 mg.
To evaluate the safety and tolerability of single and multiple doses of Compound 1.

[5] = Fasting glucose, insulin and C-peptide, MAD; format: in vivo, human; settings: 30-120 mg QD for 10 days
Source text: Patients with congenital HI have fasting hypoglycemia due to excess endogenous insulin secretion. Metabolic biomarkers including glucose, insulin, C-peptide, and βhydroxybutyrate will be collected throughout both the SAD and MAD to assess the effect of single and multiple doses of Compound 1.

T1 sequence (P30874 whole entry): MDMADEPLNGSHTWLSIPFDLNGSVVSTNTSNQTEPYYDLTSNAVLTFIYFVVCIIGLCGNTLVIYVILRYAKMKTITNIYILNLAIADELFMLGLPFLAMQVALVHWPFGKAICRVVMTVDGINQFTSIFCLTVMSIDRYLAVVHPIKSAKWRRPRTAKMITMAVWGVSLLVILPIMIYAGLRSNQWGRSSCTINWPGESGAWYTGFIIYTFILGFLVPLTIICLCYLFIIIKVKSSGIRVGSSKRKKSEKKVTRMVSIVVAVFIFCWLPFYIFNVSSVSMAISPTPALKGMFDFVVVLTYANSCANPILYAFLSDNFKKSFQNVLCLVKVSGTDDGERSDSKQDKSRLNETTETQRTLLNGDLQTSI

C[C@H](NC(=O)c1cnc(C#N)c(-c2cc(F)cc(F)c2)c1N1CC[C@H](N)C1)C(F)(F)F [Compound 1, 4-[(3S)-3-aminopyrrolidin-1-yl]-6-cyano-5-(3,5-difluorophenyl)-N-[(2S)-1,1,1-trifluoropropan-2-yl]pyridine-3-carboxamide]
EC50 [1]: > 100 nM
Inhibition of arginine-stimulated glucagon secretion (human pancreatic islets): up to 24%
AUC [2]: 590 ng·h/mL
Cmax [2]: 45 ng/mL
Food effect on exposure ([3]; 120 mg within 30 minutes of a high fat breakfast): significant reduction in exposure
Tmax ([3]; human, in vivo, single oral dose, at efficacious doses): 1 to 2 h
half-life ([3]; human, in vivo, single oral dose, healthy volunteers): ~40 h
Oral bioavailability and dose proportionality ([3]; single oral doses 0.5 to 120 mg): oral bioavailability with dose-proportional exposure
Safety and tolerability [4]: generally safe and well tolerated
Fasting insulin and C-peptide levels [5]: suppressed
Fasting plasma glucose [5]: dose-dependent increase in fasting plasma glucose
